{"source": "ChEMBL document CHEMBL1151574", "about": "“Convergent syntheses and cytostatic properties of 2-chloro-2-deoxy-2-fluoroadenosine and its N7-isomer” (1995)", "key": {"[1]": {"tested_on": "IM-9", "experiment": "In vitro toxicity against myeloma cell line (IM-9) at a concentration of 0.01 ug/ml", "type": "functional, Homo sapiens"}, "[2]": {"tested_on": "IM-9", "experiment": "In vitro toxicity against myeloma cell line (IM-9) at a concentration of 0.1 ug/ml", "type": "functional, Homo sapiens"}, "[3]": {"tested_on": "IM-9", "experiment": "In vitro toxicity against myeloma cell line (IM-9) at a concentration of 10 ug/ml", "type": "functional, Homo sapiens"}, "[4]": {"tested_on": "MOLT-3", "experiment": "In vitro toxicity against acute T cell leukemia (MOLT-3) at a concentration of 0.01 ug/ml", "type": "functional, Homo sapiens"}, "[5]": {"tested_on": "MOLT-3", "experiment": "In vitro toxicity against acute T cell leukemia (MOLT-3) at a concentration of 0.1 ug/ml", "type": "functional, Homo sapiens"}, "[6]": {"tested_on": "MOLT-3", "experiment": "In vitro toxicity against acute T cell leukemia (MOLT-3) at a concentration of 1.0 ug/ml", "type": "functional, Homo sapiens"}, "[7]": {"tested_on": "MOLT-3", "experiment": "In vitro toxicity against acute T cell leukemia (MOLT-3) at a concentration of 10 ug/ml", "type": "functional, Homo sapiens"}, "[8]": {"tested_on": "PHA-Ly", "experiment": "In vitro toxicity against phytohemagglutininin-stimulated peripheral blood lymphocytes (PHA-Ly) at a concentration of 0.01 ug/ml", "type": "functional, Homo sapiens"}, "[9]": {"tested_on": "PHA-Ly", "experiment": "In vitro toxicity against phytohemagglutininin-stimulated peripheral blood lymphocytes (PHA-Ly) at a concentration of 0.1 ug/ml", "type": "functional, Homo sapiens"}, "[10]": {"tested_on": "PHA-Ly", "experiment": "In vitro toxicity against phytohemagglutininin-stimulated peripheral blood lymphocytes (PHA-Ly) at a concentration of 1.0 ug/ml", "type": "functional, Homo sapiens"}, "[11]": {"tested_on": "PHA-Ly", "experiment": "In vitro toxicity against phytohemagglutininin-stimulated peripheral blood lymphocytes (PHA-Ly) at a concentration of 10 ug/ml", "type": "functional, Homo sapiens"}, "[12]": {"tested_on": "Raji", "experiment": "In vitro toxicity against Burkitt's lymphoma (B-cell) (Raji) at a concentration of 0.01 ug/ml", "type": "functional, Homo sapiens"}, "[13]": {"tested_on": "Raji", "experiment": "In vitro toxicity against Burkitt's lymphoma (B-cell) (Raji) at a concentration of 0.1 ug/ml", "type": "functional, Homo sapiens"}, "[14]": {"tested_on": "Raji", "experiment": "In vitro toxicity against Burkitt's lymphoma (B-cell) (Raji) at a concentration of 1.0 ug/ml", "type": "functional, Homo sapiens"}, "[15]": {"tested_on": "Raji", "experiment": "In vitro toxicity against Burkitt's lymphoma (B-cell) (Raji) at a concentration of 10 ug/ml", "type": "functional, Homo sapiens"}, "[16]": {"tested_on": "U-937", "experiment": "In vitro toxicity against histocytic lymphoma (U-937) at a concentration of 0.01 ug/ml", "type": "functional, Homo sapiens"}, "[17]": {"tested_on": "U-937", "experiment": "In vitro toxicity against histocytic lymphoma (U-937) at a concentration of 0.1 ug/ml", "type": "functional, Homo sapiens"}, "[18]": {"tested_on": "U-937", "experiment": "In vitro toxicity against histocytic lymphoma (U-937) at a concentration of 1.0 ug/ml", "type": "functional, Homo sapiens"}, "[19]": {"tested_on": "U-937", "experiment": "In vitro toxicity against histocytic lymphoma (U-937) at a concentration of 10 ug/ml", "type": "functional, Homo sapiens"}, "[20]": {"tested_on": "IM-9", "experiment": "In vitro toxicity against myeloma cell line (IM-9) at a concentration of 1.0 ug/ml", "type": "functional, Homo sapiens"}, "[21]": {"tested_on": "IM-9", "experiment": "In vitro toxicity against myeloma cell line (IM-9) at a concentration of 10 ug/ml; No significant toxicity", "type": "functional, cell-based", "conditions": "Homo sapiens"}, "[22]": {"tested_on": "MOLT-3", "experiment": "In vitro toxicity against acute T cell leukemia (MOLT-3) at a concentration of 10 ug/ml; No significant toxicity", "type": "functional, cell-based", "conditions": "Homo sapiens"}, "[23]": {"tested_on": "PHA-Ly", "experiment": "In vitro toxicity against phytohemagglutininin-stimulated peripheral blood lymphocytes (PHA-Ly) at a concentration of 10 ug/ml; No significant toxicity", "type": "functional, cell-based", "conditions": "Homo sapiens"}, "[24]": {"tested_on": "Raji", "experiment": "In vitro toxicity against Burkitt's lymphoma (B-cell) (Raji) at a concentration of 10 ug/ml; No significant toxicity", "type": "functional, cell-based", "conditions": "Homo sapiens"}, "[25]": {"tested_on": "U-937", "experiment": "In vitro toxicity against histocytic lymphoma (U-937) at a concentration of 10 ug/ml; No significant toxicity", "type": "functional, cell-based", "conditions": "Homo sapiens"}}, "note": "The source made the active and inactive calls. The rule behind the calls is not given here.", "data": [{"smiles": "Nc1nc(Cl)nc2c1ncn2[C@@H]1O[C@H](CO)C(O)[C@H]1F", "note": "(single isomer, unassigned)", "values": [{"measurement": "Toxicity", "setting": "[1]", "result": 108, "unit": "%"}, {"measurement": "Toxicity", "setting": "[2]", "result": 110, "unit": "%"}, {"measurement": "Toxicity", "setting": "[3]", "result": 5.7, "unit": "%"}, {"measurement": "Toxicity", "setting": "[4]", "result": 106, "unit": "%"}, {"measurement": "Toxicity", "setting": "[5]", "result": 79, "unit": "%"}, {"measurement": "Toxicity", "setting": "[6]", "result": 3.3, "unit": "%"}, {"measurement": "Toxicity", "setting": "[7]", "result": 2.6, "unit": "%"}, {"measurement": "Toxicity", "setting": "[8]", "result": 98, "unit": "%"}, {"measurement": "Toxicity", "setting": "[9]", "result": 90, "unit": "%"}, {"measurement": "Toxicity", "setting": "[10]", "result": 17, "unit": "%"}, {"measurement": "Toxicity", "setting": "[11]", "result": 4, "unit": "%"}, {"measurement": "Toxicity", "setting": "[12]", "result": 103, "unit": "%"}, {"measurement": "Toxicity", "setting": "[13]", "result": 68, "unit": "%"}, {"measurement": "Toxicity", "setting": "[14]", "result": 9.1, "unit": "%"}, {"measurement": "Toxicity", "setting": "[15]", "result": 2.5, "unit": "%"}, {"measurement": "Toxicity", "setting": "[16]", "result": 99, "unit": "%"}, {"measurement": "Toxicity", "setting": "[17]", "result": 70, "unit": "%"}, {"measurement": "Toxicity", "setting": "[18]", "result": 4.9, "unit": "%"}, {"measurement": "Toxicity", "setting": "[19]", "result": 1.8, "unit": "%"}, {"measurement": "Toxicity", "setting": "[20]", "result": 19, "unit": "%"}]}, {"smiles": "Nc1nc(Cl)nc2ncn([C@@H]3O[C@H](CO)C(O)[C@H]3F)c12", "note": "(single isomer, unassigned)", "values": [{"measurement": "Toxicity", "setting": "[21]", "result": "inactive"}, {"measurement": "Toxicity", "setting": "[22]", "result": "inactive"}, {"measurement": "Toxicity", "setting": "[23]", "result": "inactive"}, {"measurement": "Toxicity", "setting": "[24]", "result": "inactive"}, {"measurement": "Toxicity", "setting": "[25]", "result": "inactive"}]}]}
